Measured values: patent publication US12655116B2, “Substituted isophthalic acid diamides” (Bayer Aktiengesellschaft, priority 2020, dated 2026)

Legend:
[1] = test system: VERPE; test: Post-emergence herbicidal action against VERPE; type: in vivo, Veronica persica; details: Veronica persica, 504 h
Procedure, shortened: (§1)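 Greenhouse plants in sandy loam were sprayed at the one-leaf stage, 2 to 3 weeks after sowing, with WP or EC formulations as aqueous suspension or emulsion (600 to 800 l/ha water, 0.2% wetting agent). Visual damage was scored about 3 weeks later versus untreated controls, 0% = like control, 100% = dead.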

[2] = test system: PHBPU; test: Post-emergence herbicidal action against PHBPU; type: in vivo, Pharbitis purpurea; details: Ipomoea purpurea, 504 h; for pest or weed control at 20 g/ha: dosage 20 g/ha
Procedure, shortened: as §1

[3] = test system: VIOTR; test: Post-emergence herbicidal action against VIOTR; type: in vivo, Viola tricolor; details: Viola tricolor, 504 h
Procedure, shortened: as §1

[4] = test system: SETVI; test: Pre-emergence herbicidal action against SETVI; type: in vivo, Setaria viridis; details: Setaria viridis, 504 h; for pest or weed control at 80 g/ha: dosage 80 g/ha
Procedure, shortened: (§2)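 Pre-emergence soil-surface spray of formulated compound (WP or EC; 600 to 800 l/ha; 0.2% wetting agent) over seeds sown in sandy loam. After 3 weeks under greenhouse conditions, damage is estimated visually in percent against untreated plants.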

[5] = test system: ALOMY; test: Pre-emergence herbicidal action against ALOMY; type: in vivo, Alopecurus myosuroides; details: Alopecurus myosuroides, 504 h; 80 g/ha, pre-emergence, scored visually after 3 weeks vs untreated controls (100% = plants have died, 0% = like control plants)
Procedure, shortened: as §2

[6] = test system: SETVI; test: Post-emergence herbicidal action against SETVI; type: in vivo, Setaria viridis; details: Setaria viridis, 504 h; for pest or weed control at 20 g/ha: dosage 20 g/ha
Procedure, shortened: as §1

[7] = test system: STEME; test: Pre-emergence herbicidal action against STEME; type: in vivo, Stellaria media; details: Stellaria media, 504 h; for pest or weed control at 20 g/ha: dosage 20 g/ha; for pest or weed control at 80 g/ha: dosage 80 g/ha
Procedure, shortened: as §2

[8] = test system: AVEFA; test: Pre-emergence herbicidal action against AVEFA; type: in vivo, Avena fatua; details: Avena fatua, 504 h; 80 g/ha, pre-emergence
Procedure, shortened: as §2

[9] = test system: AMARE; test: Pre-emergence herbicidal action against AMARE; type: in vivo, Amaranthus retroflexus; details: Amaranthus retroflexus, 504 h, scored visually after 3 weeks vs untreated controls, 100% = plants have died, 0% = like control plants
Procedure, shortened: as §2

[10] = test system: VERPE; test: Pre-emergence herbicidal action against VERPE; type: in vivo, Veronica persica; details: Veronica persica, 504 h; for pest or weed control at 80 g/ha: dosage 80 g/ha
Procedure, shortened: as §2

[11] = test system: DIGSA; test: Post-emergence herbicidal action against DIGSA; type: in vivo, Digitaria sanguinalis; details: Digitaria sanguinalis, 504 h
Procedure, shortened: as §1

[12] = test system: HORMU; test: Post-emergence herbicidal action against HORMU; type: in vivo, Hordeum murinum; details: Hordeum murinum, 504 h, dosage 20 g/ha
Experimental: Seeds of monocotyledonous and dicotyledonous weed and crop plants are laid out in sandy loam soil in wood-fiber pots, covered with soil and cultivated in a greenhouse under good growth conditions. 2 to 3 weeks after sowing, the test plants are treated at the one-leaf stage. The compounds of the invention, formulated in the form of wettable powders (WP) or as emulsion concentrates (EC), are then sprayed onto the green parts of the plants in the form of an aqueous suspension or emulsion at a water application rate equivalent to 600 to 800 l/ha, with addition of 0.2% wetting agent. After the test plants have been left to stand in the greenhouse under optimal growth conditions for about 3 weeks, the action of the preparations is assessed visually in comparison to untreated controls (herbicidal action in percent (%): 100% activity=the plants have died, 0% activity=like control plants). […] The tables below illustrate, in an illustrative manner, the post-emergence herbicidal action of the compounds of the invention, the herbicidal activity being stated in percent.

[13] = test system: ABUTH; test: Pre-emergence herbicidal action against ABUTH; type: in vivo, Abutilon theophrasti; details: Abutilon theophrasti, 504 h; for pest or weed control at 80 g/ha: scored visually after 3 weeks vs untreated controls (100% = plants have died, 0% = like control plants)
Procedure, shortened: as §2

[14] = test system: DIGSA; test: Pre-emergence herbicidal action against DIGSA; type: in vivo, Digitaria sanguinalis; details: Digitaria sanguinalis, 504 h; for pest or weed control at 20 g/ha: dosage 20 g/ha; for pest or weed control at 80 g/ha: dosage 80 g/ha
Procedure, shortened: as §2

[15] = test system: POLCO; test: Pre-emergence herbicidal action against POLCO; type: in vivo, Polygonum convolvulus; details: Fallopia convolvulus, 504 h, dosage 80 g/ha
Procedure, shortened: as §2

[16] = test system: ECHCG; test: Post-emergence herbicidal action against ECHCG; type: in vivo, Echinochloa crus-galli; details: Echinochloa crus-galli, 504 h; for pest or weed control at 20 g/ha: dosage 20 g/ha
Procedure, shortened: as §1

[17] = test system: LOLRI; test: Pre-emergence herbicidal action against LOLRI; type: in vivo, Lolium rigidum; details: Lolium rigidum, 504 h, 80 g/ha
Procedure, shortened: as §2

[18] = test system: VIOTR; test: Pre-emergence herbicidal action against VIOTR; type: in vivo, Viola tricolor; details: Viola tricolor, 504 h; for pest or weed control at 20 g/ha: dosage 20 g/ha; for pest or weed control at 80 g/ha: dosage 80 g/ha
Procedure, shortened: as §2

[19] = test system: ECHCG; test: Pre-emergence herbicidal action against ECHCG; type: in vivo, Echinochloa crus-galli; details: Echinochloa crus-galli, 504 h, 80 g/ha
Procedure, shortened: as §2

[20] = test system: AMARE; test: Post-emergence herbicidal action against AMARE; type: in vivo, Amaranthus retroflexus; details: Amaranthus retroflexus, 504 h, 20 g/ha, visual assessment about 3 weeks after treatment, 100% = plants have died, 0% = like control plants
Procedure, shortened: as §1

[21] = test system: STEME; test: Post-emergence herbicidal action against STEME; type: in vivo, Stellaria media; details: Stellaria media, 504 h; for pest or weed control at 5 g/ha: dosage 5 g/ha
Procedure, shortened: as §1

[22] = test system: ALOMY; test: Post-emergence herbicidal action against ALOMY; type: in vivo, Alopecurus myosuroides; details: Alopecurus myosuroides, 504 h, dosage 20 g/ha, visual assessment about 3 weeks after treatment vs untreated controls
Procedure, shortened: as §1

[23] = test system: MATIN; test: Post-emergence herbicidal action against MATIN; type: in vivo, Matricaria inodora; details: Tripleurospermum inodorum, 504 h, dosage 20 g/ha
Procedure, shortened: as §1

[24] = test system: PHBPU; test: Pre-emergence herbicidal action against PHBPU; type: in vivo, Pharbitis purpurea; details: Ipomoea purpurea, 504 h, dosage 80 g/ha
Procedure, shortened: as §2

[25] = test system: MATIN; test: Pre-emergence herbicidal action against MATIN; type: in vivo, Matricaria inodora; details: Tripleurospermum inodorum, 504 h; for pest or weed control at 20 g/ha: dosage 20 g/ha; for pest or weed control at 80 g/ha: dosage 80 g/ha
Procedure, shortened: as §2

[26] = test system: ABUTH; test: Post-emergence herbicidal action against ABUTH; type: in vivo, Abutilon theophrasti; details: Abutilon theophrasti, 504 h, visual assessment about 3 weeks after treatment vs untreated controls; for pest or weed control at 5 g/ha: dosage 5 g/ha; for pest or weed control at 20 g/ha: dosage 20 g/ha
Procedure, shortened: as §1

[27] = test system: AVEFA; test: Post-emergence herbicidal action against AVEFA; type: in vivo, Avena fatua; details: Avena fatua, 504 h, 20 g/ha, visual assessment about 3 weeks after treatment, 100% = plants have died, 0% = like control plants
Procedure, shortened: as §1

| Structure (SMILES) | pest or weed control at 20 g/ha [1] [%] | pest or weed control at 20 g/ha [2] [%] | pest or weed control at 20 g/ha [3] [%] | pest or weed control at 80 g/ha [4] [%] | pest or weed control at 80 g/ha [5] [%] | pest or weed control at 20 g/ha [6] [%] | pest or weed control at 20 g/ha [7] [%] | pest or weed control at 80 g/ha [7] [%] | pest or weed control at 80 g/ha [8] [%] | pest or weed control at 20 g/ha [9] [%] | pest or weed control at 80 g/ha [9] [%] | pest or weed control at 80 g/ha [10] [%] | pest or weed control at 5 g/ha [11] [%] | pest or weed control at 20 g/ha [11] [%] | pest or weed control at 20 g/ha [12] [%] | pest or weed control at 80 g/ha [13] [%] | pest or weed control at 20 g/ha [14] [%] | pest or weed control at 80 g/ha [14] [%] | pest or weed control at 80 g/ha [15] [%] | pest or weed control at 20 g/ha [16] [%] | other results |
| --- | --- | --- | --- | --- | --- | --- | --- | --- | --- | --- | --- | --- | --- | --- | --- | --- | --- | --- | --- | --- | --- |
| CNC(=O)c1c(C(F)(F)F)ccc(C(=O)Nc2nnnn2C)c1C [Example 1-25] | 80 | 80 | 100 | 100 | 90 | 80 | 80 | 90 | 90 | 100 | 100 | 100 | 90 | 100 | 100 | 100 | 90 | 100 | 80 | 100 | pest or weed control at 5 g/ha ([3]; 5 g/ha): 100%; pest or weed control at 20 g/ha ([4]; dosage 20 g/ha): 80%; pest or weed control at 20 g/ha ([10]; dosage 20 g/ha): 80%; pest or weed control at 80 g/ha [17]: 80%; pest or weed control at 20 g/ha [18]: 80%; pest or weed control at 80 g/ha [18]: 100%; pest or weed control at 80 g/ha [19]: 100%; pest or weed control at 20 g/ha [20]: 100%; pest or weed control at 20 g/ha [21]: 100%; pest or weed control at 5 g/ha [21]: 80%; pest or weed control at 20 g/ha [22]: 100%; pest or weed control at 20 g/ha [23]: 100%; pest or weed control at 80 g/ha [24]: 90%; pest or weed control at 20 g/ha [25]: 90%; pest or weed control at 80 g/ha [25]: 100%; pest or weed control at 5 g/ha [26]: 100%; pest or weed control at 20 g/ha [26]: 100% |
| CNC(=O)c1c(C(F)F)ccc(C(=O)Nc2nnnn2C)c1SC [Example 1-87] | 90 | 90 | 80 | 100 | 90 | 90 | 90 | 100 | 90 | 90 | 100 | 90 | 100 | 100 | 80 | 100 | 100 | 100 | 90 | 80 | pest or weed control at 5 g/ha ([1]; 5 g/ha): 80%; pest or weed control at 5 g/ha ([2]; dosage 5 g/ha): 80%; pest or weed control at 5 g/ha ([6]; dosage 5 g/ha): 80%; pest or weed control at 20 g/ha ([13]; dosage 20 g/ha, scored visually after 3 weeks vs untreated controls, 100% = plants have died, 0% = like control plants, read-out: Pre-emergence action against ABUTH (herbicidal activity in percent)): 100%; pest or weed control at 5 g/ha ([16]; dosage 5 g/ha): 80%; pest or weed control at 80 g/ha [17]: 80%; pest or weed control at 20 g/ha [18]: 80%; pest or weed control at 80 g/ha [18]: 100%; pest or weed control at 80 g/ha [19]: 100%; pest or weed control at 20 g/ha [20]: 100%; pest or weed control at 20 g/ha [21]: 100%; pest or weed control at 5 g/ha [21]: 80%; pest or weed control at 20 g/ha [22]: 80%; pest or weed control at 20 g/ha [27]: 80%; pest or weed control at 20 g/ha [23]: 80%; pest or weed control at 80 g/ha [24]: 80%; pest or weed control at 20 g/ha [25]: 80%; pest or weed control at 80 g/ha [25]: 90%; pest or weed control at 5 g/ha [26]: 90%; pest or weed control at 20 g/ha [26]: 90% |
